Assay results from patent publication US20190264146A1, “An Antimicrobial Composition” (priority 2015, published 2019).

Assays:
Experiment in all cases: Microdilution test (MIC/MBC)
Type in all cases: cell-based
Conditions in all cases: lower line of pair, sub-cultivation 72 h
S. typhimurium = tested on: S. typhimurium
Description: (§1) Minimum inhibitory concentration (MIC) is the lowest concentration of an antimicrobial that will inhibit the visible growth of a microorganism after overnight incubation. Minimum inhibitory concentrations are important in diagnostic laboratories to confirm resistance of microorganisms to an antimicrobial agent and to monitor the activity of new antimicrobial agents. A MIC is the most basic laboratory measurement of the activity of an antimicrobial agent against an organism.
(§2) The minimum inhibitory and bactericidal concentrations (MICs and MBCs) can be determined using 96-well microtitre plates. The bacterial suspension is adjusted with sterile saline to a concentration of 1.0×10^5 cfu/m L. Compounds to be investigated are dissolved in broth LB medium (100 μL) with bacterial inoculum (1.0×10^4 cfu per well) to achieve the wanted concentrations (0.02-15.0 μL g/mL). The microplates are incubated for 24 h at 28° C. […] The MBCs are determined by serial sub-cultivation of 2 μL into microtitre plates containing 100 μL of broth per well and further incubation for 72 h. The lowest concentration with no visible growth is defined as the MBC, indicating 99.5% killing of the original inoculum. The optical density of each well is measured at a wavelength of 655 nm by Microplate manager 4.0 (Bio-Rad Laboratories) and compared with a blank and the positive control. Streptomycin is used as a positive control using the same concentrations as in the disc diffusion test. Two replicates were done for each oil and each component.

S. aureus = tested on: S. aureus
Description: as §1, §2

S. epidermidis = tested on: S. epidermidis
Description: as §1, §2

B. subtilis = tested on: B. subtilis
Description: as §1, §2

P. mirabilis = tested on: P. mirabilis
Description: as §1, §2

E. cloacae = tested on: E. cloacae
Description: as §1, §2

L. monocytogenes = tested on: L. monocytogenes
Description: as §1, §2

S. enteritidis = tested on: S. enteritidis
Description: as §1, §2

M. flavus = tested on: M. flavus
Description: as §1, §2

E. coli = tested on: E. coli
Description: as §1, §2

P. aeruginosa = tested on: P. aeruginosa
Description: as §1, §2

C=C(C)[C@H]1CC=C(C)CC1 [Limonene]
MBC (S. typhimurium): 10.0 μL g/mL
MBC (S. aureus): 8.0 μL g/mL
MBC (S. epidermidis): 8.0 μL g/mL
MBC (B. subtilis): 7.0 μL g/mL
MBC (P. mirabilis): 15.0 μL g/mL
MBC (E. cloacae): 10.0 μL g/mL
MBC (L. monocytogenes): 10.0 μL g/mL
MBC (S. enteritidis): 10.0 μL g/mL
MBC (M. flavus): 7.0 μL g/mL
MBC (E. coli): 12.0 μL g/mL
MBC (P. aeruginosa): 15.0 μL g/mL

C=C1CCC2CC1C2(C)C (stereo not drawn) [beta pinene]
MBC (S. typhimurium): 9.0 μL g/mL
MBC (S. aureus): 7.5 μL g/mL
MBC (S. epidermidis): 6.5 μL g/mL
MBC (B. subtilis): 6.0 μL g/mL
MBC (P. mirabilis): 10.0 μL g/mL
MBC (E. cloacae): 10.0 μL g/mL
MBC (L. monocytogenes): 10.0 μL g/mL
MBC (S. enteritidis): 9.0 μL g/mL
MBC (M. flavus): 5.5 μL g/mL
MBC (E. coli): 10.0 μL g/mL
MBC (P. aeruginosa): 13.0 μL g/mL

CC12CCC(CC1)C(C)(C)O2 [1,8 cineole (eucalyptol)]
MBC (S. typhimurium): 6.0 μL g/mL
MBC (S. aureus): 6.0 μL g/mL
MBC (S. epidermidis): 5.0 μL g/mL
MBC (B. subtilis): 5.0 μL g/mL
MBC (P. mirabilis): 8.0 μL g/mL
MBC (E. cloacae): 8.0 μL g/mL
MBC (L. monocytogenes): 6.0 μL g/mL
MBC (S. enteritidis): 6.0 μL g/mL
MBC (M. flavus): 5.0 μL g/mL
MBC (E. coli): 8.0 μL g/mL
MBC (P. aeruginosa): 9.0 μL g/mL
